Structures can show the parent of a compound that is named as a salt.
Columns and labels:
Assay type in all cases: biochemical
[1] = target: human PLK4 (Homo sapiens (Human), UniProt O00444); assay: PLK4 inhibition assay (indirect ELISA); details: read-out: PLK4 IC50 Ranges
Protocol: PLK4 activity was measured using an indirect ELISA detection system. […] The colourimetric reaction was allowed to continue for 5 minutes, followed by addition of stop solution (0.5 N sulphuric acid), and quantified by detection at 450 nm with either a monochromatic or filter based plate reader (Molecular Devices M5 or Beckman DTX880, respectively).
Compounds were pre-incubated in the presence of enzyme for 15 minutes prior to addition of ATP and the activity remaining quantified using the above described activity assay. […] The IC50 value was determined using a non-linear 4 point logistic curve fit (XLfit4, IDBS) with the formula; (A+(B/(1+((x/C)^D)))), where A=background value, B=range, C=inflection point, D=curve fit parameter.

[2] = target: Aurora B (Homo sapiens (Human), UniProt Q96GD4); assay: Aurora B inhibition assay (Z-Lyte); details: read-out: Aurora B IC50 Ranges
Protocol: Aurora B inhibition was determined using the Z-Lyte assay kit from Invitrogen. […] The % inhibition values were determined according to the manufacturer's directions and IC50 values were obtained using a non-linear 4 point logistic curve fit (XLfit4, IDBS)

[3] = target: FLT3 (Homo sapiens (Human), UniProt P36888); assay: FLT3 inhibition assay (Z-Lyte); details: read-out: Flt3 IC50 Ranges
FLT3, sequence (P36888 27-993): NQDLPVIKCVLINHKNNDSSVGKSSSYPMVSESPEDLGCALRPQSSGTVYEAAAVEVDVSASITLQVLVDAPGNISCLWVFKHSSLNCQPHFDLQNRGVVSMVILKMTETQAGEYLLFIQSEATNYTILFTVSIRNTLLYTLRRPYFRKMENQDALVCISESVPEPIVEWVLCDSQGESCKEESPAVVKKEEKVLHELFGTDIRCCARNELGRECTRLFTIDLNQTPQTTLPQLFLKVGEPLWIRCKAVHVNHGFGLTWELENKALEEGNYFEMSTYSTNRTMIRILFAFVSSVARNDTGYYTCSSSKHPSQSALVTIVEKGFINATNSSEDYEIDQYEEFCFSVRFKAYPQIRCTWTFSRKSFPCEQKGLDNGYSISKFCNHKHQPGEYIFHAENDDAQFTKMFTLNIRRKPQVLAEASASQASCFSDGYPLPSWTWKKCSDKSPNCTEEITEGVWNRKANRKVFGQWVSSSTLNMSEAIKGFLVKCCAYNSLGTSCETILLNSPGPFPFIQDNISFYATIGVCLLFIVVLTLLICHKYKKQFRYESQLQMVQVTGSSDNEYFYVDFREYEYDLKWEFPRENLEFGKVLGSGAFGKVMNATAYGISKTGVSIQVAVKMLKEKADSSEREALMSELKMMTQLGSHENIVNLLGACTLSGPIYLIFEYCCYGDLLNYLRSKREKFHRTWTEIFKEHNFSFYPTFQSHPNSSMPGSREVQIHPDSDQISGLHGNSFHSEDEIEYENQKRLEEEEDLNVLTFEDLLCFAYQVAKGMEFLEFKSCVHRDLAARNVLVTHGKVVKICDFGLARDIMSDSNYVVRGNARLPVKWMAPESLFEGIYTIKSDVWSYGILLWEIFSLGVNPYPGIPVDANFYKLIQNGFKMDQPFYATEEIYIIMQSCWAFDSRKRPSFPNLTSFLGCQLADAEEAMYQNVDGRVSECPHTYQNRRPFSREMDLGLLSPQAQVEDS
Protocol: The enzymatic activity of FLT3 was determined using the Z-Lyte assay kit from Invitrogen (Invitrogen cat #PV3191). […] The % inhibition values were determined according to the manufacturer's directions and IC50 values were obtained using a non-linear 4 point logistic curve fit (XLfit4, IDBS).

human PLK4, sequence (O00444 1-391): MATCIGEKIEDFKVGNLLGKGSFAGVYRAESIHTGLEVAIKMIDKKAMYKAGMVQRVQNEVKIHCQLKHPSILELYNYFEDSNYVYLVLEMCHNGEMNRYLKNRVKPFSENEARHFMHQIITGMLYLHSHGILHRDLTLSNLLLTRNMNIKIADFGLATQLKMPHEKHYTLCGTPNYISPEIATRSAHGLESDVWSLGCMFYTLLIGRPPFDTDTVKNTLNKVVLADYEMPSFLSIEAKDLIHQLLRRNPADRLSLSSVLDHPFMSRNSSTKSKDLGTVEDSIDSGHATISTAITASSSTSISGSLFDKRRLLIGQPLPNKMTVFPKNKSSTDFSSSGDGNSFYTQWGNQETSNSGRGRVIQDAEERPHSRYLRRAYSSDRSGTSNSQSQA
Aurora B, sequence (Q96GD4 whole entry): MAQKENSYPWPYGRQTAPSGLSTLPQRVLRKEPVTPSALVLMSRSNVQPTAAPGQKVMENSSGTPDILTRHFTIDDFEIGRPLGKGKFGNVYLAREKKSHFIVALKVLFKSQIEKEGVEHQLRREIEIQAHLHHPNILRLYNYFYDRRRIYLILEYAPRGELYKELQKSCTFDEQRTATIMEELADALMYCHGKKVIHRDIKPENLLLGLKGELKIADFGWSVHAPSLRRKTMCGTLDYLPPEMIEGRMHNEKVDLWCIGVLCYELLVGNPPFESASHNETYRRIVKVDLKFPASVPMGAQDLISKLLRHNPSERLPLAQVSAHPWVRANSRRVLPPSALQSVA

| Compound | IC50 [1] | IC50 [2] | IC50 [3] |
| --- | --- | --- | --- |
| COc1ccc2c(c1)[C@]1(C[C@H]1c1ccc3c(-c4ccc(N(C)CCN(C)C)cc4)n[nH]c3c1)C(=O)N2 [Example A129, (1R,2S)-2-(3-(4-((2-(dimethylamino)ethyl)(methyl)amino)phenyl)-1H-indazol-6-yl)-5′-methoxyspiro[cyclopropane-1,3′-indolin]-2′-one 2,2,2-trifluoroacetate] | < 100 nM | < 100 nM | 100 to 1000 nM |
| COc1ccc2c(c1)[C@]1(C[C@H]1c1ccc3c(-c4ccc5c(c4)CNCC5)n[nH]c3c1)C(=O)N2 [Example A71, (1R,2S)-5′-methoxy-2-(3-(1,2,3,4-tetrahydroisoquinolin-7-yl)-1H-indazol-6-yl)spiro[cyclopropane-1,3′-indolin]-2′-one 2,2,2-trifluoroacetate salt] | < 100 nM | < 100 nM | 100 to 1000 nM |
| COc1ccc2c(c1)[C@]1(C[C@H]1c1ccc3c(/C=C/c4ccc(CN5CC[C@@H](F)C5)cc4)n[nH]c3c1)C(=O)N2 [Example A112, (1R,2S)-(E)-2-(3-(4-(((R)-3-fluoropyrrolidin-1-yl)methyl)styryl)-1H-indazol-6-yl)-5′-methoxyspiro[cyclopropane-1,3′-indolin]-2′-one 2,2,2-trifluoroacetate] | < 100 nM | < 100 nM | 100 to 1000 nM |
| COc1ccc2c(c1)[C@]1(C[C@H]1c1ccc3c(-c4cccc(CN5CCCCC5)c4)n[nH]c3c1)C(=O)N2 (relative stereo) [Example A44, (1R*,2S*)-5′-methoxy-2-(3-(3-(piperidin-1-ylmethyl)phenyl)-1H-indazol-6-yl)spiro[cyclopropane-1,3′-indolin]-2′-one 2,2,2-trifluoroacetate] | < 100 nM | 100 to 1000 nM | > 1000 nM |

From patent US9907800B2, “Kinase inhibitors and method of treating cancer” (University Health Network, priority 2010, dated 2018)
